Data taken from ChEMBL document CHEMBL4706640, “Structure-Based Drug Design and Synthesis of PI3Kα-Selective Inhibitor (PF-06843195)” (J Med Chem, 2021).
Converted amounts (≈) assume the structure as drawn. Values belong to the molecule of their own block, whether it stands above or below them. The source made the active and inactive calls. The calls are words filed in the database; no cut-off is given here.

Columns and labels:
[1] = system: MCF7; test: Antitumor activity against human MCF7 cells xenografted in mouse model assessed as tumor growth regression in presence of palbociclib; assay type: functional, cell-based
[2] = system: MCF7; test: Antitumor activity against human MCF7 cells xenografted in mouse model assessed as tumor growth regression in presence of fulvestrant and palbociclib; assay type: functional, cell-based
[3] = Plasma clearance in Wistar Han rat at 2.3 mg/kg, iv; assay type: ADME, organism-based
[4] = AUC (0 to t) in Wistar Han rat at […], po; assay type: ADME, organism-based; settings: in vivo
[5] = Oral bioavailability in Wistar Han rat at […]; assay type: ADME, organism-based; settings: in vivo
[6] = Cmax in Wistar Han rat assessed as 2,2-difluoroethyl (3S)-3-{[2'-amino-5-fluoro-2-(morpholin-4-yl)-4,5'-bipyrimidin-6-yl]amino}-3-(hydroxymethyl)pyrrolidine-1-carboxylate level at […], po; assay type: ADME, organism-based; settings: in vivo
[7] = AUC (0 to t) in Wistar Han rat at 2.3 mg/kg, iv; assay type: ADME, organism-based; set-up: dose 2.3 mg/kg; settings: in vivo
[8] = AUC (0 to t) in Wistar Han rat assessed as 2,2-difluoroethyl (3S)-3-{[2'-amino-5-fluoro-2-(morpholin-4-yl)-4,5'-bipyrimidin-6-yl]amino}-3-(hydroxymethyl)pyrrolidine-1-carboxylate level at 2.3 mg/kg, iv; assay type: ADME, organism-based; set-up: dose 2.3 mg/kg; settings: in vivo
[9] = Tmax in Wistar Han rat at […], po; assay type: ADME, organism-based; settings: in vivo
[10] = AUC (0 to t) in Wistar Han rat assessed as 2,2-difluoroethyl (3S)-3-{[2'-amino-5-fluoro-2-(morpholin-4-yl)-4,5'-bipyrimidin-6-yl]amino}-3-(hydroxymethyl)pyrrolidine-1-carboxylate level at […], po; assay type: ADME, organism-based; settings: in vivo
[11] = Kinetic solubility of compound at pH 7.4 after 24 hrs by LC/MS/MS analysis; assay type: physicochemical; settings: buffer, read-out: Kinetic_solubility
[12] = Tmax in Wistar Han rat assessed as 2,2-difluoroethyl (3S)-3-{[2'-amino-5-fluoro-2-(morpholin-4-yl)-4,5'-bipyrimidin-6-yl]amino}-3-(hydroxymethyl)pyrrolidine-1-carboxylate level at […], po; assay type: ADME, organism-based; settings: in vivo
[13] = Thermodynamic solubility of compound at pH 7.4; assay type: physicochemical; settings: buffer, read-out: Therm_solubility
[14] = system: MDA-MB-361; test: Antitumor activity against human MDA-MB-361 cells xenografted in mouse model assessed as tumor growth inhibition; assay type: functional, cell-based
[15] = Half life in Wistar Han rat at 2.3 mg/kg, iv; assay type: ADME, organism-based; settings: in vivo
[16] = Half life in human intestinal S9 fraction assessed as 2,2-difluoroethyl (3S)-3-{[2'-amino-5-fluoro-2-(morpholin-4-yl)-4,5'-bipyrimidin-6-yl]amino}-3-(hydroxymethyl)pyrrolidine-1-carboxylate level by enzymatic hydrolysis assay; assay type: ADME, subcellular, Intestine
[17] = system: MCF7; test: Antitumor activity against human MCF7 cells xenografted in mouse model assessed as tumor growth inhibition; assay type: functional, cell-based
[18] = Half life in rat intestinal S9 fraction assessed as 2,2-difluoroethyl (3S)-3-{[2'-amino-5-fluoro-2-(morpholin-4-yl)-4,5'-bipyrimidin-6-yl]amino}-3-(hydroxymethyl)pyrrolidine-1-carboxylate level by enzymatic hydrolysis assay; assay type: ADME, subcellular, Intestine
[19] = Volume of distribution at steady state in Wistar Han rat at 2.3 mg/kg, iv; assay type: ADME, organism-based; settings: in vivo, read-out: Vdss
[20] = Cmax in Wistar Han rat at […], po; assay type: ADME, organism-based; settings: in vivo
[21] = system: MCF7; test: Antitumor activity against human MCF7 cells xenografted in mouse model assessed as tumor growth regression in presence of fulvestrant; assay type: functional, cell-based
[22] = target: Serine/threonine-protein kinase mTOR (Homo sapiens, UniProt P42345); test: Inhibition of mTOR in TSC1 null human MCF7 cells assessed as decrease in p70S6K phosphorylation at Thr389 residue incubated for 2 hrs by ELISA; assay type: cell-based
[23] = Inhibition of PI3K p110alpha […] mutant in human MCF7 cells assessed as reduction in phosphorylation of Akt at T308 residue incubated for 2 hrs by ELISA; assay type: cell-based; settings: MCF7, 2 h
[24] = system: MCF7; test: Antiproliferation activity against human MCF7 cells assessed as reduction in cell viability incubated for 7 days by Cell-titer Glo reagent based assay; assay type: functional; settings: MCF7, 168 h
[25] = Inhibition of PI3K p110alpha H1047R mutant in human T47D cells assessed as reduction in phosphorylation of Akt at T308 residue incubated for 2 hrs by ELISA; assay type: cell-based
[26] = system: T47D; test: Antiproliferation activity against human T47D cells assessed as reduction in cell viability incubated for 7 days by Cell-titer Glo reagent based assay; assay type: functional; settings: 168 h

clearance [3]: 5.34 L/h/kg | AUC(0-t) [4]: 0.0029 µg·h/mL | bioavailability [5]: 0.14% | Cmax [6]: 290 ng/mL | AUC(0-t) [7]: 0.43 µg·h/mL | AUCt [8]: 0.9 µg·h/mL | Tmax [9]: 10.2 min | AUCt [10]: 1.5 µg·h/mL | solubility kinetic at 24 h [11]: 0.31 mg/mL (≈ 0.536 mM) | Tmax [12]: 120 min | solubility thermodynamic [13]: 6.2 mg/mL (≈ 10.7 mM) | half-life [15]: 16.8 min | t1/2 [16]: 14 min | t1/2 [18]: 86 min | Vd [19]: 0.34 L/kg | Cmax [20]: 4.3 ng/mL
Structure (SMILES): Nc1ncc(-c2nc(N3CCOCC3)nc(N[C@@]3(COP(=O)(O)O)CCN(C(=O)OCC(F)F)C3)c2F)cn1
Activity [1]: Active | Activity [2]: Active | TGI [14]: Active | TGI [17]: Active | Activity [21]: Active

IC50 [22]: 3 µM | IC50 [23]: 0.039 µM | IC50 [24]: 0.53 µM | IC50 [25]: 0.03 µM | IC50 [26]: 0.42 µM
Structure (SMILES): Cc1nc(NC(=O)N2CCC[C@H]2C(N)=O)sc1-c1ccnc(C(C)(C)C(F)(F)F)c1 [ALPELISIB]
